# Calls of active or inactive are those of the source. The calls are words filed in the database; no cut-off is given here.
# Key:
# [1] = system: MCF7; assay: Cytotoxicity against human MCF7 cells after 24 hrs by MTT assay; type: functional, cell-based; details: MCF7, 24 h
# [2] = system: MCF7; assay: Cytotoxicity against human MCF7 cells assessed as cell viability at 10 uM after 24 hrs by MTT assay; type: functional; details: MCF7, 24 h, read-out: Activity
# [3] = system: DU-145; assay: Induction of apoptosis in human DU145 cells assessed as necrotic cells at 10 uM after 48 hrs by annexinV/propidium iodide staining-based FITC analysis (reference value: 0.35%); type: functional
# [4] = system: K562; assay: Cytotoxicity against human K562 cells assessed as cell viability at 10 uM after 24 hrs by MTT assay; type: functional; details: K562, 24 h, read-out: Activity
# [5] = system: PC-3; assay: Cell cycle arrest in human PC3 cells assessed as accumulation at G2/M phase at 5 uM after 48 hrs by propidium iodide staining-based flow cytometric analysis relative to control; type: functional
# [6] = system: K562; assay: Induction of apoptosis in human K562 cells assessed as accumulation at G2/M phase at 10 uM after 48 hrs by propidium iodide staining-based flow cytometric analysis (reference value: 15.72%); type: functional
# [7] = system: PC-3; assay: Cell cycle arrest in human PC3 cells assessed as accumulation at G0/G1 phase at 10 uM after 48 hrs by propidium iodide staining-based flow cytometric analysis relative to control; type: functional
# [8] = system: PC-3; assay: Induction of apoptosis in human PC3 cells assessed as late apoptotic cells at 5 uM after 48 hrs by annexinV/propidium iodide staining-based FITC analysis relative to control; type: functional
# [9] = system: PC-3; assay: Inhibition of cyclin A protein expression in human PC3 cells at 20 uM after 48 hrs by Western blot analysis; type: functional, cell-based
# [10] = system: MCF7; assay: Induction of apoptosis in human MCF7 cells assessed as accumulation at S phase at 5 uM after 48 hrs by propidium iodide staining-based flow cytometric analysis (reference value: 22.99%); type: functional
# [11] = system: K562; assay: Induction of apoptosis in human K562 cells assessed as accumulation at S phase at 10 uM after 48 hrs by propidium iodide staining-based flow cytometric analysis (reference value: 45.67%); type: functional
# [12] = system: DU-145; assay: Induction of apoptosis in human DU145 cells assessed as accumulation at G2/M phase at 10 uM after 48 hrs by propidium iodide staining-based flow cytometric analysis (reference value: 16.14%); type: functional
# [13] = system: PC-3; assay: Induction of apoptosis in human PC3 cells assessed as late apoptotic cells at 20 uM after 48 hrs by annexinV/propidium iodide staining-based FITC analysis relative to control; type: functional
# [14] = system: MCF7; assay: Induction of apoptosis in human MCF7 cells assessed as accumulation at G2/M phase at 10 uM after 48 hrs by propidium iodide staining-based flow cytometric analysis (reference value: 9.55%); type: functional
# [15] = system: DU-145; assay: Induction of apoptosis in human DU145 cells assessed as early apoptotic cells at 40 uM after 48 hrs by annexinV/propidium iodide staining-based FITC analysis (reference value: 2.34%); type: functional
smiles,measurement,setting,value
CC[C@H](/C=C/[C@@H](C)[C@H]1CC[C@H]2[C@H]3[C@H]([C@H](O)C[C@]12C)[C@@]1(C)CC[C@H](O)CC1=C[C@H]3O)C(C)C,IC50,[1],9.04 µM
same,viability at 10 µM,[2],36%
same,Activity,[3],0.28%
same,viability at 10 µM,[4],32%
same,Activity,[5],14.11%
same,Activity,[6],12.11%
same,Activity,[7],52.69%
same,Activity,[8],27.43%
same,inhibition,[9],Active
same,Activity,[10],19.09%
same,Activity,[11],48.25%
same,Activity,[12],21.4%
same,Activity,[13],42.21%
same,Activity,[14],10.03%
same,Activity,[15],3.13%

# Source: ChEMBL document CHEMBL2062415, “Steroids from Commiphora mukul display antiproliferative effect against human prostate cancer PC3 cells via induction of apoptosis” (Bioorg Med Chem Lett, 2012)
